Data reported in patent US8106055B2, “Substituted amide compounds” (Gruenenthal GmbH, priority 2007, dated 2012).

How the values were obtained:
[1] = biological target: T1, human bradykinin 1 receptor (B1R) (Homo sapiens, UniProt P46663); assay: Functional investigation on the human bradykinin 1 receptor (B1R), Ca2+ FLIPR assay in CHO K1 hB1R cells; format: cell-based; details: B1R antagonism human; test substance 10 μM; Ca2+ FLIPR, CHO K1 hB1R cells
T1 construct: expressed in transfected cells; host or cells: CHO K1 cells
T1 sequence (P46663 1-353): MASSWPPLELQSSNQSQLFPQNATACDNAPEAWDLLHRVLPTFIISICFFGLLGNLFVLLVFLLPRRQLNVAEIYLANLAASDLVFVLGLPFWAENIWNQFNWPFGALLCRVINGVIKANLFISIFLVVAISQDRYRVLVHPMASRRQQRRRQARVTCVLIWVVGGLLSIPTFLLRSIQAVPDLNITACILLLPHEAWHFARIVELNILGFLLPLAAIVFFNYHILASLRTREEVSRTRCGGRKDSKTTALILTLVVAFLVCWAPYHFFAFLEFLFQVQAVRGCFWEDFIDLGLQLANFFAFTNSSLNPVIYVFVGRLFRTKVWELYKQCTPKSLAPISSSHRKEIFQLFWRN
Method in brief: (§1)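 Peak Ca2+-dependent fluorescence in B1R-transfected CHO K1 cells measures antagonism of an EC80 agonist challenge given 10-20 min after compound. Agonist is Lys-Des-Arg9-bradykinin for human, Des-Arg9-bradykinin for rat receptor.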

[2] = biological target: T2, bradykinin 1 receptor (B1R) of the rat (Rattus norvegicus, UniProt P97583); assay: Functional investigation on the rat bradykinin 1 receptor (B1R), Ca2+ FLIPR assay in CHO K1 rB1R cells; format: cell-based; details: B1R antagonism rat; test substance 10 μM; Ca2+ FLIPR, CHO K1 rB1R cells
T2 construct: expressed in transfected cells; host or cells: CHO K1 cells
T2 sequence (P97583 1-337): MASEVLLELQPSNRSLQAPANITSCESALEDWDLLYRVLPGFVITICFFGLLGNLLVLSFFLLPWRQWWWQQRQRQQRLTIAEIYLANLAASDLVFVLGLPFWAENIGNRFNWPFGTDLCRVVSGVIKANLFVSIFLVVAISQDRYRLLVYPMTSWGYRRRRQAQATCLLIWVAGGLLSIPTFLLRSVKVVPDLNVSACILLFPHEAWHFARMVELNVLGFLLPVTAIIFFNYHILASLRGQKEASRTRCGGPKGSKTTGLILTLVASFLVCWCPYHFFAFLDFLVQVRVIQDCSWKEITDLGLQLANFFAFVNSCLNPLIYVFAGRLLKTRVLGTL
Method in brief: as §1

SMILES	B1R Ant. h [10 μM] % Inhibition [1] [%]	B1R Ant. r [10 μM] % Inhibition [2] [%]
CN(C)C(c1ccc(F)cc1)C1CCC(NC(=O)COC2CCN(S(=O)(=O)c3ccccc3)CC2)CC1 (stereo not shown) [Example 408]	−16	1
COc1ccc(S(=O)(=O)N2CCCC2COCC(=O)NCCC2CCC(C(c3ccc(F)cc3)N(C)C)CC2)cc1 (stereo not shown) [Example 409]	45	48
CN(C)C(c1ccc(Cl)cc1)C1CCC(CCNC(=O)COC2CCCCC2N(C)S(=O)(=O)c2ccc(Cl)c(Cl)c2)CC1 (stereo not shown) [Example 410]	1	6
CN(C)C(c1ccc(Cl)cc1)C1CCC(CNC(=O)COCCN(C)S(=O)(=O)c2ccc(OC(F)(F)F)cc2)CC1 (stereo not shown) [Example 411]	41	3
COc1cc(C)c(S(=O)(=O)N2CCC(OCC(=O)NCCC3CCC(C(c4ccc(Cl)cc4)N(C)C)CC3)C2)c(C)c1C (stereo not shown) [Example 412]	40	−5
CCN(CCOCC(=O)NCCC1CCC(C(c2ccc(F)cc2)N(C)C)CC1)S(=O)(=O)c1c(C)cc(OC)c(C)c1C (stereo not shown) [Example 413]	96	83
COc1cc(C)c(S(=O)(=O)N(CCOCC(=O)NCC2CCC(C(c3cccc(F)c3)N(C)C)CC2)Cc2ccccc2)c(C)c1C (stereo not shown) [Example 414]	28	10
CN(C)C(CCc1ccccc1)C1CCC(CNC(=O)COCC2CCCN2S(=O)(=O)c2ccc(Cl)c(Cl)c2)CC1 (stereo not shown) [Example 415]	96	39
Cc1cc(C)c(S(=O)(=O)N(C)CCOCC(=O)NCCC2CCC(C(c3ccc(Cl)cc3)N(C)C)CC2)c(C)c1 (stereo not shown) [Example 416]	104	30
COc1cc(C)c(S(=O)(=O)N2CCCC(OCC(=O)NCC3CCC(C(c4ccc(F)cc4)N(C)C)CC3)C2)c(C)c1C (stereo not shown) [Example 418]	53	6
COc1cc(C)c(S(=O)(=O)N(CCOCC(=O)NC2CCC(C(c3cccc(F)c3)N(C)C)CC2)Cc2ccccc2)c(C)c1C (stereo not shown) [Example 419]	37	34
COc1cc(C)c(S(=O)(=O)N(C)CCOCC(=O)NC2CCC(C(c3ccc(F)cc3)N(C)C)CC2)c(C)c1 (stereo not shown) [Example 422]	104	104
CN(C)C(c1ccc(F)cc1)C1CCC(NC(=O)COC2CCCN(S(=O)(=O)c3ccccc3)C2)CC1 (stereo not shown) [Example 423]	4	−20
CN(C)C(c1ccc(F)cc1)C1CCC(CNC(=O)COCC2CCCN(S(=O)(=O)c3ccccc3)C2)CC1 (stereo not shown) [Example 424]	−12	20
CN(C)C(c1ccc(Cl)cc1)C1CCC(CCNC(=O)COCC2CCCN(S(=O)(=O)c3ccccc3)C2)CC1 (stereo not shown) [Example 425]	12	30
CN(C)C(c1ccc(Cl)cc1)C1CCC(CCNC(=O)COCCN(Cc2ccccc2)S(=O)(=O)c2ccccc2)CC1 (stereo not shown) [Example 426]	−7	9
COc1cc(C)c(S(=O)(=O)N2CCC(OCC(=O)NCC3CCC(C(c4ccc(F)cc4)N(C)C)CC3)C2)c(C)c1C (stereo not shown) [Example 427]	76	8
COc1cc(C)c(S(=O)(=O)N2CCC(OCC(=O)NCC3CCC(C(c4ccc(Cl)cc4)N(C)C)CC3)C2)c(C)c1C (stereo not shown) [Example 428]	48	8
COc1cc(C)c(S(=O)(=O)N2CCN(CCOCC(=O)NCC3CCC(C(c4ccc(Cl)cc4)N(C)C)CC3)CC2)c(C)c1C (stereo not shown) [Example 429]	75	13

SMILES	B1R Ant. h [10 μM] % Inhibition [1] [%]	B1R Ant. r [10 μM] % Inhibition [2] [%]
COc1ccc(S(=O)(=O)N2CCC(OCC(=O)NCCC3CCC(C(c4ccc(F)cc4)N(C)C)CC3)C2)cc1OC (stereo not shown) [Example 430]	−7	21
CN(C)C(c1ccc(Cl)cc1)C1CCC(CCNC(=O)COC2CCN(S(=O)(=O)c3cccc(C(F)(F)F)c3)C2)CC1 (stereo not shown) [Example 431]	25	34
Cc1cc(C)c(S(=O)(=O)N2CCC(OCC(=O)NCC3CCC(C(c4ccc(F)cc4)N(C)C)CC3)C2)c(C)c1 (stereo not shown) [Example 432]	61	45
CN(C)C(c1ccc(F)cc1)C1CCC(CNC(=O)COCCN2CCN(S(=O)(=O)c3ccccc3)CC2)CC1 (stereo not shown) [Example 433]	−4	−12
CCN(CCOCC(=O)NCCC1CCC(C(c2ccc(Cl)cc2)N(C)C)CC1)S(=O)(=O)c1c(C)cc(OC)c(C)c1C (stereo not shown) [Example 434]	47	58
COc1cc(C)c(S(=O)(=O)N2CCCC(OCC(=O)NC3CCC(C(c4ccc(F)cc4)N(C)C)CC3)C2)c(C)c1C (stereo not shown) [Example 435]	15	14
COc1cc(C)c(S(=O)(=O)N(CCOCC(=O)NCCC2CCC(C(c3cccc(F)c3)N(C)C)CC2)Cc2ccccc2)c(C)c1C (stereo not shown) [Example 436]	8	10
CN(C)C(c1ccc(F)cc1)C1CCC(NC(=O)COCCN(C)S(=O)(=O)c2cccc(C(F)(F)F)c2)CC1 (stereo not shown) [Example 438]	9	−10
CN(C)C(c1ccc(F)cc1)C1CCC(CNC(=O)COCCN(C)S(=O)(=O)c2ccc(OC(F)(F)F)cc2)CC1 (stereo not shown) [Example 439]	44	16
CN(C)C(c1ccc(Cl)cc1)C1CCC(CCNC(=O)COC2CCN(S(=O)(=O)c3ccc(F)cc3)C2)CC1 (stereo not shown) [Example 440]	8	31
COc1cc(C)c(S(=O)(=O)N2CCC(OCC(=O)NC3CCC(C(c4ccc(F)cc4)N(C)C)CC3)C2)c(C)c1 (stereo not shown) [Example 441]	94	84
CN(C)C(c1ccc(Cl)cc1)C1CCC(CCNC(=O)COCCN(C)S(=O)(=O)c2c(Cl)cc(Cl)cc2Cl)CC1 (stereo not shown) [Example 442]	84	11
CN(C)C(c1ccc(Cl)cc1)C1CCC(CCNC(=O)COC2CCN(S(=O)(=O)c3ccccc3)CC2)CC1 (stereo not shown) [Example 443]	21	−1
CN(C)C(c1cccc(F)c1)C1CCC(CCNC(=O)COC2CCN(S(=O)(=O)c3ccccc3)CC2)CC1 (stereo not shown) [Example 444]	−20	−5
CN(C)C(CCc1ccccc1)C1CCC(CNC(=O)COCCN(C)S(=O)(=O)c2ccc(Cl)cc2)CC1 (stereo not shown) [Example 445]	66	46
CN(C)C(c1ccc(F)cc1)C1CCC(CCNC(=O)COCCN(C)S(=O)(=O)c2ccc(OC(F)(F)F)cc2)CC1 (stereo not shown) [Example 446]	19	33
Cc1ccc(S(=O)(=O)N2CCC(OCC(=O)NCC3CCC(C(c4ccc(F)cc4)N(C)C)CC3)C2)cc1 (stereo not shown) [Example 447]	24	3
Cc1ccc(S(=O)(=O)N(C)CCOCC(=O)NC2CCC(C(c3ccc(F)cc3)N(C)C)CC2)cc1 (stereo not shown) [Example 448]	0	12
COc1cc(C)c(S(=O)(=O)N2CCCC(OCC(=O)NCC3CCC(C(c4ccc(Cl)cc4)N(C)C)CC3)C2)c(C)c1C (stereo not shown) [Example 449]	25	−7
